Assay results from EPA's ToxRefDB 2.

What was measured:
dog [1] = details: Subchronic oral toxicity in nonrodent, beagle, Feed, dose end: 13 week, group: systemic, systemic / in life observation / body weight / body weight + systemic / in life observation / body weight / body weight gain + systemic / in…
dog [2] = details: Chronic toxicity; beagle; Oral; Feed; dose end: 52 week; group: systemic; systemic / organ weight / thyroid gland / absolute + systemic / organ weight / thyroid gland / relative to body weight + systemic / …
mouse [3] = details: Carcinogenicity, cd1, Oral, Feed, dose end: 8 week, group: systemic
dog [4] = details: Chronic toxicity, beagle, Oral, Feed, dose end: 8 week, group: systemic
rat [5] = details: Prenatal developmental toxicity study, sprague dawley, Oral, Gavage/Intubation, dose end: 15 GD
mouse [6] = details: Carcinogenicity; cd1; Oral; Feed; dose end: 102 week; group: systemic; systemic / organ weight / liver / absolute + systemic / organ weight / liver / relative to body weight
rat [7] = details: Subchronic oral toxicity in rodents, sprague dawley, Feed, dose end: 90 day, group: systemic
rat [8] = details: Combined chronic toxicity/carcinogenicity, sprague dawley, Oral, Feed, dose end: 104 week, group: systemic
[9] = systemic / organ weight / liver / relative to body weight
[10] = systemic / organ weight / liver / relative to body weight + systemic / clinical chemistry / alkaline phosphatase (alp/alk) / alkaline …
[11] = systemic / clinical chemistry / alanine aminotransferase (alt/sgpt) / alanine aminotransferase (alt/sgpt) + systemic / clinical chemistry / …
[12] = group: developmental, developmental / developmental malformation / bone / short
[13] = group: maternal, systemic / in life observation / mortality / mortality + reproductive / reproductive performance / resorptions / resorptions
[14] = systemic / clinical chemistry / albumin-globulin ratio / albumin-globulin ratio + systemic / clinical chemistry / phosphorus / phosphate
[15] = systemic / hematology / erythrocyte (rbc) count differential / erythrocyte (rbc) + systemic / hematology / leukocyte (wbc) count …
[16] = systemic / clinical chemistry / alanine aminotransferase (alt/sgpt) / alanine aminotransferase (alt/sgpt)

For `C=CCC1=C(C)[C@@H](OC(=O)[C@@H]2[C@@H](C=C(C)C)C2(C)C)CC1=O` [S-Bioallethrin], the LEL (dog [1]) was 90.5 mg/kg/day, the LOAEL (dog [1]) was 90.5 mg/kg/day and the NEL (dog [1]) was 38.5 mg/kg/day. It also gave an NOAEL (dog [1]) of 38.5 mg/kg/day, an LEL (dog [2]) of 2.7 mg/kg/day and an LOAEL (dog [2]) of 13.7 mg/kg/day. For the same compound, the NEL (dog [2]) was < 2.7 mg/kg/day, the NOAEL (dog [2]) was 2.7 mg/kg/day and the LEL (mouse [3]; [9]) was 420 mg/kg/day. It also gave an LOAEL (mouse [3]; [9]) of 420 mg/kg/day, an NEL (mouse [3]; [10]) of 229 mg/kg/day and an NOAEL (mouse [3]; [10]) of 229 mg/kg/day. It also gave an LOAEL (dog [4]; [11]) of 63.2 mg/kg/day, an NEL (dog [4]; [11]) of 4.5 mg/kg/day and an NOAEL (dog [4]; [11]) of 19.5 mg/kg/day. The LEL (dog [4]; systemic / organ weight / liver / absolute + systemic / organ weight / liver / relative to body weight) was 19.5 mg/kg/day, the LEL (rat [5]; [12]) was 50 mg/kg/day and the LOAEL (rat [5]; [12]) was 50 mg/kg/day. For the same compound, the NEL (rat [5]; [12]) was < 50 mg/kg/day, the NOAEL (rat [5]; [12]) was < 50 mg/kg/day and the LOAEL (rat [5]; group: maternal, systemic / in life observation / mortality / mortality) was 195 mg/kg/day. It also gave an LEL (rat [5]; [13]) of 195 mg/kg/day, an NEL (rat [5]; [13]) of 125 mg/kg/day and an NOAEL (rat [5]; [13]) of 125 mg/kg/day. For the same compound, the LEL (mouse [6]) was 214 mg/kg/day, the LOAEL (mouse [6]) was > 214 mg/kg/day and the NEL (mouse [6]) was 41.9 mg/kg/day. The NOAEL (mouse [6]) was ≥ 214 mg/kg/day, the LEL (rat [7]; [14]) was 20.6 mg/kg/day and the NEL (rat [7]; [14]) was < 20.6 mg/kg/day. For the same compound, the LOAEL (rat [7]; [15]) was 36.6 mg/kg/day, the NOAEL (rat [7]; [15]) was 18.5 mg/kg/day and the LEL (rat [8]; [16]) was 7.2 mg/kg/day. The LOAEL (rat [8]; [16]) was 82.6 mg/kg/day, the NEL (rat [8]; [16]) was < 7.2 mg/kg/day and the NOAEL (rat [8]; systemic / clinical chemistry / alanine aminotransferase (alt/sgpt) / alanine aminotransferase (alt/sgpt) + systemic / pathology microscopic…) was 27 mg/kg/day.
